According to the NIST ThermoML archive (doi:10.1016/j.fluid.2008.04.003):

Test: wn = mass fraction of the nth substance listed
Conditions: 101 kPa, Liquid; for viscosity: Capillary tube (Ostwald / Ubbelohde) method

NC(CO)(CO)CO [2-amino-2-(hydroxymethyl)-1,3-propanediol] + O
Conditions	mass density, 283.15 K [kg/m3]	mass density, 288.15 K [kg/m3]	mass density, 293.15 K [kg/m3]	mass density, 298.15 K [kg/m3]	mass density, 303.15 K [kg/m3]	mass density, 308.15 K [kg/m3]	mass density, 313.15 K [kg/m3]	viscosity, 283.15 K [mPa·s]	viscosity, 298.15 K [mPa·s]	viscosity, 313.15 K [mPa·s]
w1 = 0.0015	1000.5	999.9	999.1	997.9	996.6	995	993.1	1.315	0.905	0.656
w1 = 0.005	1001.6	1001.3	1000.5	999.4	997.8	996	993.6	1.354	0.913	0.662
w1 = 0.01	1002.4	1001.8	1001	1000	998.7	997.2	995.4	1.36	0.917	0.669
w1 = 0.025	1006.8	1006	1005.1	1003.8	1002.3	1000.7	998.7	1.422	0.959	0.696
w1 = 0.1	1026.2	1025	1023.8	1022.4	1020.8	1019.4	1017.7	1.802	1.173	0.857
